Data set [1] can be described thus: Acute toxicity in mice, DL50 dose. As to conditions: mouse, in vivo, ip, intraperitoneal, suspension in aqueous carboxymethylcellulose, observed one week. On the procedure:
The acute toxicity was determined on groups of 5 mice weighing about 18 to 22 g and the test products were intraperitoneally administered in suspension in an aqueous carboxymethylcellulose.

Data set [2] relates to male rats of the Sprague Dawley S.P.F. strain. Briefly: Hypolipemiant activity in rats on sucrose- and cholesterol-rich regime, % variation of levels versus untreated controls. In kind it is in vivo, rat (Sprague Dawley S.P.F.). As to conditions: 10 days, esophagus tube, vs untreated controls. On the procedure:
This test was effected on groups of 8 male rats of the Sprague Dawley S.P.F. strain weighing about 200 g and the animals received a regime containing 50% of saccharose and which was rich in cholesterol (1%). The rats were treated over 10 days with the test products which were administered through an esophagus tube as a suspension in water containing carboxymethylcellulose. The animals were left without food 16 hours after the last administration of the test product and then killed by an abdominal puncture and from the blood sample with sodium heparinate, the levels of triglycerides, cholesterol and total lipids were determined by the following methods.
The triglyceride level was determined by the semiautomatic technique of Kessler et al [Automation in Analytical Chemistry, 1965, p. 341] modified by Claude et al [Ann. Biol. Clin., Vol. 26 3-4 (1968), p. 451]. The cholesterol levels were determined by the technique of Levine [Symposium Technicon, Vol. I, (1967), p. 25] adapted to auto-analyzer system I. The nephelometric level of total lipids was determined semi-automatically by the method of Girard et al. [Symposium Technicon, 1970]. The variations expressed in percentages of the level of triglycerides, cholesterol and total lipids after administration of the various dosage of the test products in the treated animals as compared to the untreated controls and the results are reported in Table I.

Compound `C=CC1(c2ccccc2)OC(C(=O)OC)Oc2ccc(Cl)cc21` (single isomer, unassigned) [Example 22, methyl 6-chloro-4-phenyl-4-ethenyl-[4H]-1,3-benzodioxin-2-carboxylate] displayed an LD50 at 168 h in data set [1] of around 700 mg/kg. Further, in data set [2] (5 mg/kg day), the “% Variation of levels, Cholesterol” value is -35%; the “% Variation of levels, Total Lipids” value is -34%; the “% Variation of levels, Triglycerides” value is -79%.

Consider `COC(=O)C1Oc2ccc(OC)cc2C(C)(c2ccccc2)O1` (single isomer, unassigned) [Example 30, methyl 6-methoxy-4-methyl-4-phenyl-[4H]-1,3-benzodioxin-2-carboxylate], for which the LD50 at 168 h in data set [1] was above 1000 mg/kg. For the same compound, in data set [2] (5 mg/kg day), the “% Variation of levels, Cholesterol” value was -43%; the “% Variation of levels, Total Lipids” value is on record as -41%; the “% Variation of levels, Triglycerides” value is -33%.

Consider `COC(=O)C1Oc2ccc(Cl)cc2C(Cc2ccccc2)(c2ccccc2)O1` (single isomer, unassigned) [Example 32, methyl 6-chloro-4-phenyl-4-benzyl-[4H]-1,3-benzodioxin-2-carboxylate], for which, in data set [1], the LD50 at 168 h is above 1000 mg/kg. Further, in data set [2] (5 mg/kg day), the “% Variation of levels, Cholesterol” value is -45%; the “% Variation of levels, Total Lipids” value was -41%; the “% Variation of levels, Triglycerides” value is recorded as -11%.

With `CCC1(CC)OC(C(=O)O)Oc2ccc(Cl)cc21` (stereo not drawn) [Example 1, 6-chloro-4,4-diethyl-[4H]-1,3-benzodioxin-2-carboxylic acid], in data set [1], the median lethal dose (LD50) at 168 h worked out at 200 mg/kg. For the same compound, in data set [2] (50 mg/kg day), the “% Variation of levels, Cholesterol” value is on record as -37%; the “% Variation of levels, Total Lipids” value is -39%; the “% Variation of levels, Triglycerides” value is given as -11%.

For `CC1(C)OC(C(=O)O)Oc2ccc(Cl)cc21` (stereo not drawn) [Example 2, 6-chloro-4,4-dimethyl-[4H]-1,3-benzodioxin-2-carboxylic acid], the LD50 at 168 h in data set [1] is 450 mg/kg. In addition, in data set [2] (50 mg/kg day), the “% Variation of levels, Cholesterol” value is on record as -23%; the “% Variation of levels, Total Lipids” value is on record as -28%; the “% Variation of levels, Triglycerides” value is -11%.

As for `COC(=O)C1Oc2ccc(Cl)cc2C(C)(c2cccc(C(F)(F)F)c2)O1` (stereo not drawn) [Example 18], the LD50 at 168 h in data set [1] is above 1000 mg/kg. Besides, in data set [2] (2 mg/kg day), the “% Variation of levels, Cholesterol” value is recorded as -30%; the “% Variation of levels, Total Lipids” value is reported as -29%; the “% Variation of levels, Triglycerides” value is -15%. Also, in data set [2] (5 mg/kg day), the “% Variation of levels, Cholesterol” value was -41%; the “% Variation of levels, Total Lipids” value is on record as -51%; the “% Variation of levels, Triglycerides” value is -47%.

One may read the LD50 as the dose expected to kill half of the subjects tested. A lower LD50 goes with greater toxicity.
